Legend:
[1] = target: PDGF-R (Homo sapiens, UniProt P09619); assay: PDGF-R ELISA; assay type: cell-based
Source text: A PDGF-R ELISA is described in International Patent Publication No. WO 96/40116, published December 19, 1996 by Tang et al.

[2] = target: T1, EGFR (Homo sapiens, UniProt P00533); assay: EGFR ELISA assay (in vitro kinase activity, EGFR captured from A431 cell lysate); assay type: biochemical; set-up: concentration or dose not given beside the values
T1 construct: Add 7 ug A431 cell lysate per well (EGFR source); endogenous in cells; host or cells: A431
T1 sequence (P00533 25-1210): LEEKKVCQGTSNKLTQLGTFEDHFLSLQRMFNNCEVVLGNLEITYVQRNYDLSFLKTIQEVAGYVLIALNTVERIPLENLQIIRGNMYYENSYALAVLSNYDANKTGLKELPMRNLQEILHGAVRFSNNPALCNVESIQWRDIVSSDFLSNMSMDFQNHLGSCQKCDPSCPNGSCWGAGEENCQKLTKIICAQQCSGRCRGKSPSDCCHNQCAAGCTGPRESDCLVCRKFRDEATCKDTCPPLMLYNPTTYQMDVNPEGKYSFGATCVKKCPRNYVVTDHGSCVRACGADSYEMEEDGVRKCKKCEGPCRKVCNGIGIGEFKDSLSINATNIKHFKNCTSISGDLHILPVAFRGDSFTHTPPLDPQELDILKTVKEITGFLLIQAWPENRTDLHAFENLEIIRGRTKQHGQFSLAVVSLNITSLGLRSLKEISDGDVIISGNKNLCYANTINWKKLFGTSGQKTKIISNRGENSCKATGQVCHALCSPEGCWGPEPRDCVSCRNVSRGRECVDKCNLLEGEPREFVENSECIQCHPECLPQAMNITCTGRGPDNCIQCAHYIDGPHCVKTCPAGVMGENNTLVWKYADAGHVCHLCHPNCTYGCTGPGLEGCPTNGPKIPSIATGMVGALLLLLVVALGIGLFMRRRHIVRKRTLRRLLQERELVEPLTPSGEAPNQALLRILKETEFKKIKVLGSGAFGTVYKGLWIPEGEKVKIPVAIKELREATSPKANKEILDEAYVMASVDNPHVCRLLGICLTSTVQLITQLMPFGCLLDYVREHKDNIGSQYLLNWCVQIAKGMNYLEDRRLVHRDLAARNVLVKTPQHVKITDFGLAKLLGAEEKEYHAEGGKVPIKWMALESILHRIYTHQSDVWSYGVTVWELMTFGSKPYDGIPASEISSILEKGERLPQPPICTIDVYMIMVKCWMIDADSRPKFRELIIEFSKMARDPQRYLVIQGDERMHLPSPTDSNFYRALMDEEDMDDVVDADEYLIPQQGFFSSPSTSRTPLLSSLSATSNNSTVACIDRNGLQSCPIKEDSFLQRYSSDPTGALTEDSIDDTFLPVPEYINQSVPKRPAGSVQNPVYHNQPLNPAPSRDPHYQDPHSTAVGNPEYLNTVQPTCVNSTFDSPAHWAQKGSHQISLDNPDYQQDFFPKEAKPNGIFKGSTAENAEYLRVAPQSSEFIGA
Source text: To provide a consistent method for measuring the in vitro kinase activity of the EGFR in an Enzyme-linked immunosorbent assay (Elisa).
Scope. The following protocol describes the procedures used to analyze protein tyrosine kinase activity on the EGFR in an Elisa. The procedure also describes the protocol for the initial screening of drugs for inhibition or activation of protein tyrosine kinase activity.
Reagents and Supplies. • 1. […] 05-101 monoclonal anti-EGFR antibody (commercially available from UB1) -80° C, 1 ml aliquots • 3. […] TBST Buffer Formulation: 50 mM Tris pH 7.2 150 mM NaCl 0.1% Triton X-100 • 5. Blocking Buffer Formulation: 5% Carnation Instant Milk in PBS • 6. A431 cell lysate A431 cells are available from a variety of commercial sources and may be used lysed using conventional methods known to those skilled in the art or as described for lysis of the 3T3 cells in the EGF cellular assay described herein. -80° C, 1 ml aliquots • 7. TBS Buffer Formulation: 50 mM Tris pH 7.2 150 mM NaCl • 8. […] NUNC 96-well V bottom polypropylene plates Applied Scientific Catalog # AS-72092 • 11. EDTA Formulation: 200 mM EDTA pH 8.0 • 12. […] Goat anti-rabbit IgG peroxidase conjugate Biosource Catalog # ALI0404 • 14. ABTS Solution Formulation: 100 mM Citric Acid (anhydrous) 250 mM Na2HPO4 pH 4.0 0.5 mg/ml ABTS (2,2'-azino-bis(3-ethylbenzthiazoline-6-sulfonic acid) (Sigma Catalog # A-1888) Keep solution in dark at 4 C until ready to use • 15. Hydrogen peroxide 30% solution Fisher Catalog # H325 Store in the dark at 4 C until ready to use • 16. ABTS/H2O2 Formulation: 15 mls ABTS solution 2 ul H2O2 Prepare 5 minutes before use and room temperature • 17. 0.2 M HCL stock in H2O Procedure. • 1. Coat Corning 96-well elisa plates with 0.5 ug per well 05-101 antibody. Bring final volume to 100 ul per well with PBS. Coat plates overnight at 4° C. • 2. Remove unbound 05-101 from wells by inverting plate to remove liquid. Wash 1x with distilled H2O by filling wells Pat the plate on a paper towel to remove excess liquid. • 3. Block plates with 5% milk in PBS. 150 ul per well. Incubate plate 30 minutes while shaking on a microtiter plate shaker. • 4. Wash plate 3x with dionized water, then once with TBST • 5. Add 7 ug A431 cell lysate per well (EGFR source). Add PBS to final volume of 100 ul per well Incubate 30 minutes while shaking. • 6. Wash as described in step 4. • 7. At this point, drugs or extracts are added to the wells. Dilute drugs/extracts 1:100 (unless specified otherwise) in TBS + 10% DMSO in 96-well polypropylene plates. Add 120 ul TBS to ELISA plate containing captured EGFR. Add 13.5 ul diluted drugs/extracts to ELISA plate. […] Incubate plate 30 minutes while shaking. • 8. […] (150 ul final volume in well with 3 uM ATP/5 mM MnCl2 final concentration in well.) Incubate 5 minutes while shaking vigorously. *NOTE: It is critical that ATP/MnCl2 phosphorylates the receptor for 5 minutes only. It is best to add the ATP/MnCl2 with an 12 channel pipettor 1 row at a time leaving 20 seconds between each row so that the reaction may be stopped with EDTA exactly 5 minutes later (this depends on the number of plates being phosphorylated in one batch). Shake between each addition. • 9. After 5 minutes, to stop reaction, add 16.5 ul of 200 mM EDTA pH 8.0 for 20 mM final in well, shaking continuously between each addition. This is done using the same timing method as above. After last row has received EDTA, shake plate an additional minute. • 10. Wash 4x with deionized water, twice with TBST. • 11. Add rabbit polyclonal anti-phosphotyrosine serum. Dilute 1:3000 in TBST. Add 100 ul per well. Incubate 30-45 minutes while shaking. • 12. Wash as described above in step 4. • 13. Add BioSource anti-rabbit peroxidase conjugate antibody. Dilute 1:2000 in TBST. Add 100 ul per well. Incubate 30 minutes while shaking. • 14. Wash as described in step 4. • 15. Add 100 ul of ABTS/H2O2 solution to well. Incubate 5 to 10 minutes while shaking. Remove bubbles • 16. […]

Sequence of PDGF-R (P09619 33-1106, species assumed): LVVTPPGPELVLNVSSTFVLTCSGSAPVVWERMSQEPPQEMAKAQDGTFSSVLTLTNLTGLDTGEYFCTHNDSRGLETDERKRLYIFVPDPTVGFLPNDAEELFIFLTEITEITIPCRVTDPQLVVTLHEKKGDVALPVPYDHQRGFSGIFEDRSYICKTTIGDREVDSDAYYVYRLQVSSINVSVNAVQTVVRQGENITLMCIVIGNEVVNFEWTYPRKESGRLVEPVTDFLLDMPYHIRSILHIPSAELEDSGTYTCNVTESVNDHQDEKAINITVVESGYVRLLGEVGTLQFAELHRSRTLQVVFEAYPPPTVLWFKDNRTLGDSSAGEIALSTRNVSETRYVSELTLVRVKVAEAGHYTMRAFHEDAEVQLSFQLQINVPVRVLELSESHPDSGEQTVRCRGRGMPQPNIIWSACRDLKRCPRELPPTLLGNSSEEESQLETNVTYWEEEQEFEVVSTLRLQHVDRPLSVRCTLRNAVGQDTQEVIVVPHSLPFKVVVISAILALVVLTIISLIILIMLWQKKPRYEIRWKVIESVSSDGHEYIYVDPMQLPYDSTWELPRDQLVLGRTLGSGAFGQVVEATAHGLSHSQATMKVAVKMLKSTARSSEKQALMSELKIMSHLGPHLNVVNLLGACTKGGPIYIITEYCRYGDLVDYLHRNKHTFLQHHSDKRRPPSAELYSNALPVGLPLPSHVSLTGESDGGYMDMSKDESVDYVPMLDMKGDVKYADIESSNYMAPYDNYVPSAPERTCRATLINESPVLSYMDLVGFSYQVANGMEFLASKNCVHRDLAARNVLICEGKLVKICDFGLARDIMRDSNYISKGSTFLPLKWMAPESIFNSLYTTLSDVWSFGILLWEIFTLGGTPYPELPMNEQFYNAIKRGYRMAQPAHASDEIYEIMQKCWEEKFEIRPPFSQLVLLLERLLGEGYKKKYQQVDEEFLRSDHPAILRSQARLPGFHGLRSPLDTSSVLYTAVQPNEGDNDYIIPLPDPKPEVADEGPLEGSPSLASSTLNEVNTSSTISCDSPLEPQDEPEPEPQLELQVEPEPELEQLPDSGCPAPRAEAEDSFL

| Structure (SMILES) | PDGF Kinase %Inhibition [1] [%] | Biochem EGFR %Inhibition [2] [%] |
| --- | --- | --- |
| CNS(=O)(=O)c1ccc2c(c1)C(=Cc1c[nH]c3ccc(OC)cc13)C(=O)N2 [10731/D09] | -2.0 | 12.6 |
| COc1ccc2[nH]cc(C=C3C(=O)Nc4ccc(CCCl)cc43)c2c1 [10731/G09] | -8.7 | 8.9 |
| C=C(C)C1CC=C(C=C2C(=O)Nc3ccc(S(=O)(=O)N4CCOCC4)cc32)CC1 (stereo not drawn) [10731/F04] | 3.2 | 5.0 |
| CC(C)c1ccc2occ(C=C3C(=O)Nc4ccc(CCCl)cc43)c(=O)c2c1 [10731/G05] | 8.0 | 18.5 |
| COc1c(Br)cc(C=C2C(=O)Nc3c(Br)cc(Br)cc32)cc1C(C)(C)C [10732/A07] | 0.7 | -0.3 |
| Cc1ccc2occ(C=C3C(=O)Nc4ccc(S(=O)(=O)N5CCOCC5)cc43)c(=O)c2c1 [10731/F06] | -23.4 | 7.2 |
| CC(C)(C)c1cc(C=C2C(=O)Nc3c(Br)cc(Br)cc32)ccc1OCc1ccccc1 [10732/A06] | 12.3 | -1.4 |
| CNS(=O)(=O)c1ccc2c(c1)C(=Cc1cc(C(C)C)c(OC)c(C(C)C)c1)C(=O)N2 [10732/D03] | 26.0 | -18.7 |
| COc1ccc2[nH]cc(C=C3C(=O)Nc4ccc(S(=O)(=O)Nc5ccc(C(F)(F)F)cc5)cc43)c2c1 [10731/E09] | 23.2 | 17.2 |
| COc1c(Cl)cc(C=C2C(=O)Nc3c(Br)cc(Br)cc32)cc1C(C)(C)C [10732/A09] | 8.8 | 39.7 |
| COc1c(C(C)C)cc(C=C2C(=O)Nc3ccc(I)cc32)cc1C(C)C [10732/B03] | 17.4 | -15.3 |
| Cc1c(Br)ccc2c1C(=Cc1cc(Cl)c(OCc3ccccc3)c(C(C)(C)C)c1)C(=O)N2 [10732/C10] | 5.8 | 1.2 |
| Cc1ccc2occ(C=C3C(=O)Nc4ccc(CCCl)cc43)c(=O)c2c1 [10731/G06] | -0.6 | 2.3 |
| CNS(=O)(=O)c1ccc2c(c1)C(=Cc1cc(C(C)C)c(Oc3ccccc3)c(C(C)C)c1)C(=O)N2 [10732/D04] | 50.7 | -11.4 |
| C=C(C)C1CC=C(C=C2C(=O)Nc3ccc(S(=O)(=O)Nc4ccc(C(F)(F)F)cc4)cc32)CC1 (stereo not drawn) [10731/E04] | 30.8 | 13.6 |
| Cc1c(Br)ccc2c1C(=Cc1ccc([N+](=O)[O-])o1)C(=O)N2 [10718/C11] | – | -0.2 |
| Cc1cc2occ(C=C3C(=O)Nc4ccc(S(=O)(=O)N5CCOCC5)cc43)c(=O)c2cc1C [10731/F03] | 11.8 | 8.4 |
| CNS(=O)(=O)c1ccc2c(c1)C(=Cc1cc(Cl)c(OCc3ccccc3)c(C(C)(C)C)c1)C(=O)N2 [10732/D10] | 24.5 | -16.6 |
| COc1c(Br)cc(C=C2C(=O)Nc3ccc(I)cc32)cc1C(C)(C)C [10732/B07] | 21.4 | 15.8 |
| C=C(C)C1CC=C(C=C2C(=O)Nc3ccc(CCCl)cc32)CC1 (stereo not drawn) [10731/G04] | 0.3 | 7.1 |
| Cc1ccc2occ(C=C3C(=O)Nc4ccc(S(=O)(=O)Nc5ccc(C(F)(F)F)cc5)cc43)c(=O)c2c1 [10731/E06] | -12.0 | 10.4 |

| Structure (SMILES) | PDGF Kinase %Inhibition [1] [%] | Biochem EGFR %Inhibition [2] [%] |
| --- | --- | --- |
| COc1c(I)cc(C=C2C(=O)Nc3ccc(Br)c(C)c32)cc1C(C)(C)C [10732/C11] | 16.4 | -5.0 |
| CC(C)c1ccc2occ(C=C3C(=O)Nc4ccc(S(=O)(=O)Nc5ccc(C(F)(F)F)cc5)cc43)c(=O)c2c1 [10731/E05] | 27.0 | 17.7 |
| CC(C)(C)c1cc(C=C2C(=O)Nc3c(Br)cc(Br)cc32)cc(Br)c1OCc1ccccc1 [10732/A08] | 31.0 | 12.1 |
| COc1c(Br)cc(C=C2C(=O)Nc3ccc(Br)c(C)c32)cc1C(C)(C)C [10732/C07] | 4.3 | -28.6 |
| COc1c(C(C)C)cc(C=C2C(=O)Nc3c(Br)cc(Br)cc32)cc1C(C)C [10732/A03] | -3.8 | 0.8 |
| CNS(=O)(=O)c1ccc2c(c1)C(=C1C(=O)N(C)c3ccccc31)C(=O)N2 [10731/D10] | 9.9 | 15.8 |
| COc1c(Cl)cc(C=C2C(=O)Nc3ccc(I)cc32)cc1C(C)(C)C [10732/B09] | 18.4 | 2.0 |
| CCOC(=O)CCc1c(C(=O)OCC)[nH]c(C=C2C(=O)Nc3ccc(S(=O)(=O)NC)cc32)c1CC(=O)OCC [10718/D05] | – | 2.8 |
| Cc1c(Br)ccc2c1C(=Cc1cc(Br)c(OCc3ccccc3)c(C(C)(C)C)c1)C(=O)N2 [10732/C08] | 17.9 | 1.6 |
| COc1ccc(C=C2C(=O)Nc3ccc(I)cc32)cc1C(C)(C)C [10732/B05] | 21.9 | 17.0 |
| CC(C)(C)c1cc(C=C2C(=O)Nc3ccc(I)cc32)cc(Br)c1OCc1ccccc1 [10732/B08] | 16.9 | 7.8 |
| CC(C)c1cc(C=C2C(=O)Nc3c(Br)cc(Br)cc32)cc(C(C)C)c1Oc1ccccc1 [10732/A04] | -9.4 | -10.6 |
| C=C(C)C1CC=C(C=C2C(=O)Nc3ccc(S(=O)(=O)NC)cc32)CC1 (stereo not drawn) [10731/D04] | 6.5 | 15.8 |
| Cc1c(Br)ccc2c1C(=Cc1ccc(OCc3ccccc3)c(C(C)(C)C)c1)C(=O)N2 [10732/C06] | 5.3 | -43.2 |
| CC(C)(C)c1cc(C=C2C(=O)Nc3ccc(I)cc32)ccc1OCc1ccccc1 [10732/B06] | -12.4 | 12.8 |
| Cc1c(Br)ccc2c1C(=Cc1ccco1)C(=O)N2 [10718/C10] | – | -18.7 |
| CNS(=O)(=O)c1ccc2c(c1)C(=Cc1cc(OC)cc(Br)c1O)C(=O)N2 [10718/D03] | – | 61.9 |
| CCOC(=O)c1c(C)[nH]c(C=C2C(=O)Nc3ccc(S(=O)(=O)NC)cc32)c1C [10718/D02] | – | 14.4 |
| CCOC(=O)c1cc(C=C2C(=O)Nc3ccc(S(=O)(=O)NC)cc32)oc1C [10718/D06] | – | 20.0 |
| CNS(=O)(=O)c1ccc2c(c1)C(=Cc1ccc3ccccc3c1O)C(=O)N2 [10718/D04] | – | 52.0 |

Reference: patent EP1247803A2, “Indolinone compounds suitable for modulation of protein kinases” (Sugen, Inc., priority 1996, dated 1998)
